Data published in patent US20250313572A1, “MACROCYCLIC MCL-1 INHIBITORS AND METHODS OF USE” (AbbVie Inc., priority 2017, published 2025).
Like-named read-outs stand apart in the source and are kept apart here.

Key:
GST-MCL-1 = GST-MCL-1 (Homo sapiens, UniProt Q07820); test: TR-FRET MCL-1 binding assay (competition with probe F-Bak)
In short: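 Displacement of F-Bak from GST-MCL-1 is detected by time-resolved FRET with a Tb-labelled anti-GST antibody, with excitation 340/35 nm and emission 520/525 and 495/510 nm, after 2 hours at room temperature. Compounds were titrated in 11 three-fold steps starting at 25 μM final, in buffer alone or in 10% HS.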

[1] = test system: AMO-1 human multiple myeloma tumor cell line; test: AMO-1 cell viability assay (CellTiter-Glo, 24 hours); format: cell-based
Description: Each concentration was tested in duplicate at least 3 independent times. A luminescent signal proportional to the number of viable cells following 24 hours of compound treatment was determined using the CellTiter-Glo® Luminescent Cell Viability Assay according to the manufacturer's recommendations (Promega Corp., Madison, WI). The plates were read in a Perkin Elmer Envision using a Luminescence protocol. To generate dose response curves the data is normalized to percent viability by setting the averages of the staurosporine (10 μM) and DMSO only control wells to 0% and 100% viability respectively.

[2] = test system: NCI-H929 human multiple myeloma tumor cell line; test: NCI-H929 cell viability assay (CellTiter-Glo, 24 hours); format: cell-based
[3] = MCL-1 Binding Ki (nM, 10% HS), in the presence of 10% HS (human serum)
[4] = without HS, read-out: MCL-1 Binding Ki
[5] = Homo sapiens, AMO1, 24 h, read-out: AMO-1 Viability IC50 (μM, 10% FBS), 10% FBS, 24 hours of compound treatment
[6] = Homo sapiens, NCI-H929, 24 h, read-out: H929 Viability IC50 (μM, 10% FBS), 10% FBS, 24 hours of compound treatment

GST-MCL-1, sequence (Q07820 whole entry): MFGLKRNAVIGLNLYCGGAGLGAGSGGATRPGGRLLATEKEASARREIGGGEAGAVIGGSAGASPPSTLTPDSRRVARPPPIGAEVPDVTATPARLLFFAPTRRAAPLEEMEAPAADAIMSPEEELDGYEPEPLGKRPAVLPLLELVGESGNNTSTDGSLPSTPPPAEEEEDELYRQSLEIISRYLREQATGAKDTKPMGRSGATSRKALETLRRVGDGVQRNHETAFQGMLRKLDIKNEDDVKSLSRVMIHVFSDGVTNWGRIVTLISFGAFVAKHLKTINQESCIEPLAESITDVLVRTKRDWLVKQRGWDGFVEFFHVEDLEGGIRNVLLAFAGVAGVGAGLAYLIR

SMILES	Ki (GST-MCL-1; [3]) [nM]	Ki (GST-MCL-1; [4]) [nM]	IC50 [1, 5] [µM]	IC50 [2, 6] [µM]	IC50 ([1]; read-out: AMO-1 Viability IC50 (μM, 10% FBS), 10% FBS, 24 hours of compound treatment) [µM]	IC50 ([2]; read-out: H929 Viability IC50 (μM, 10% FBS), 10% FBS, 24 hours of compound treatment) [µM]
COCCOCCOC[C@H]1CC[C@H](c2nccc(COc3ccc4cc3C[C@H](C(=O)O)Oc3ncnc5sc(-c6ccc(F)cc6)c(c35)-c3c(C)c(Cl)c(c(Cl)c3C)O[C@H](CN3CCN(C)CC3)CO4)n2)CC1 [Example 160, (7R,16R)-19,23-dichloro-1-(4-fluorophenyl)-10-({2-[(1r,4r)-4-{[2-(2-methoxyethoxy)ethoxy]methyl}cyclohexyl]pyrimidin-4-yl}methoxy)-20,22-dimethyl-16-[(4-methylpiperazin-1-yl)methyl]-7,8,15,16-tetrahydro-18,21-etheno-13,9-(metheno)-6,14,17-trioxa-2-thia-3,5-diazacyclononadeca[1,2,3-cd]indene-7-carboxylic Acid]	0.083	0.005	0.000116	0.000206	–	–
COCCOCCOCCOCCOCCOCCOCCOc1ccc(-c2nccc(COc3ccc4cc3C[C@H](C(=O)O)Oc3ncnc5sc(-c6ccc(F)cc6)c(c35)-c3c(C)c(Cl)c(c(Cl)c3C)O[C@H](CN3CCN(C)CC3)CO4)n2)cc1 [Example 54, (7R,16R)-19,23-dichloro-1-(4-fluorophenyl)-10-[(2-{4-[(2,5,8,11,14,17,20-heptaoxadocosan-22-yl)oxy]phenyl}pyrimidin-4-yl)methoxy]-20,22-dimethyl-16-[(4-methylpiperazin-1-yl)methyl]-7,8,15,16-tetrahydro-18,21-etheno-13,9-(metheno)-6,14,17-trioxa-2-thia-3,5-diazacyclononadeca[1,2,3-cd]indene-7-carboxylic Acid]	0.139	0.025	0.000591	0.000771	–	–
COCCOCCOCCOC[C@]1(F)CC[C@@H](c2nccc(COc3ccc4cc3C[C@H](C(=O)O)Oc3ncnc5sc(-c6ccc(F)cc6)c(c35)-c3c(C)c(Cl)c(c(Cl)c3C)O[C@H](CN3CCN(C)CC3)CO4)n2)CC1 [Example 118, (7R,16R)-19,23-dichloro-1-(4-fluorophenyl)-10-({2-[(1s,4s)-4-fluoro-4-(2,5,8,11-tetraoxadodecan-1-yl)cyclohexyl]pyrimidin-4-yl}methoxy)-20,22-dimethyl-16-[(4-methylpiperazin-1-yl)methyl]-7,8,15,16-tetrahydro-18,21-etheno-13,9-(metheno)-6,14,17-trioxa-2-thia-3,5-diazacyclononadeca[1,2,3-cd]indene-7-carboxylic Acid]	27.3	1.99	0.000247	0.000396	–	–
Cc1c(Cl)c2c(Cl)c(C)c1-c1c(-c3ccc(F)cc3)sc3ncnc(c13)O[C@@H](C(=O)O)Cc1cc(ccc1OCc1ccnc(-c3ccc(S(=O)(=O)N4CCOCC4)cc3)n1)OC[C@@H](CN1CCN(C)CC1)O2 [Example 145, (7R,16R)-19,23-dichloro-1-(4-fluorophenyl)-20,22-dimethyl-16-[(4-methylpiperazin-1-yl)methyl]-10-({2-[4-(morpholine-4-sulfonyl)phenyl]pyrimidin-4-yl}methoxy)-7,8,15,16-tetrahydro-18,21-etheno-13,9-(metheno)-6,14,17-trioxa-2-thia-3,5-diazacyclononadeca[1,2,3-cd]indene-7-carboxylic Acid]	0.399	0.081	0.000407	0.000973	–	–
Cc1c(Cl)c2c(Cl)c(C)c1-c1c(-c3ccc(F)cc3)sc3ncnc(c13)O[C@@H](C(=O)O)Cc1cc(ccc1OCc1ccnc([C@]3(O)CCCC[C@H]3O)n1)OC[C@@H](CN1CCN(C)CC1)O2 [Example 39, (7R,16R)-19,23-dichloro-10-({2-[(1R,2R)-1,2-dihydroxycyclohexyl]pyrimidin-4-yl}methoxy)-1-(4-fluorophenyl)-20,22-dimethyl-16-[(4-methylpiperazin-1-yl)methyl]-7,8,15,16-tetrahydro-18,21-etheno-9,13-(metheno)-6,14,17-trioxa-2-thia-3,5-diazacyclononadeca[1,2,3-cd]indene-7-carboxylic Acid]	0.193	0.042	0.00119	0.00353	–	–
COCCOCCOCCOc1ccccc1-c1nccc(COc2ccc3cc2C[C@H](C(=O)O)Oc2ncnc4sc(-c5ccc(F)cc5)c(c24)-c2c(C)c(Cl)c(c(Cl)c2C)O[C@H](CN2CCN(C)CC2)CO3)n1 [Example 15, (7R,16R,21S)-19,23-dichloro-1-(4-fluorophenyl)-10-{[2-(2-{2-[2-(2-methoxyethoxy)ethoxy]ethoxy}phenyl)pyrimidin-4-yl]methoxy}-20,22-dimethyl-16-[(4-methylpiperazin-1-yl)methyl]-7,8,15,16-tetrahydro-18,21-etheno-9,13-(metheno)-6,14,17-trioxa-2-thia-3,5-diazacyclononadeca[1,2,3-cd]indene-7-carboxylic Acid]	0.152	0.015	0.000524	0.000751	–	–
COCCOCCOCCOCCOCCOCC1(C)CC=C(c2nccc(COc3ccc4cc3C[C@H](C(=O)O)Oc3ncnc5sc(-c6ccc(F)cc6)c(c35)-c3c(C)c(Cl)c(c(Cl)c3C)O[C@H](CN3CCN(C)CC3)CO4)n2)CC1 (single isomer, unassigned) [Example 85, (7R,16R)-19,23-dichloro-1-(4-fluorophenyl)-10-({2-[(4S*)-4-(2,5,8,11,14,17-hexaoxaoctadecan-1-yl)-4-methylcyclohex-1-en-1-yl]pyrimidin-4-yl}methoxy)-20,22-dimethyl-16-[(4-methylpiperazin-1-yl)methyl]-7,8,15,16-tetrahydro-18,21-etheno-13,9-(metheno)-6,14,17-trioxa-2-thia-3,5-diazacyclononadeca[1,2,3-cd]indene-7-carboxylic Acid]	0.191	0.029	–	–	0.000198	0.000485
COCCOCCOCCOCCO[C@H]1CC[C@H](c2nccc(COc3ccc4cc3C[C@H](C(=O)O)Oc3ncnc5sc(-c6ccc(F)cc6)c(c35)-c3c(C)c(Cl)c(c(Cl)c3C)O[C@H](CN3CCN(C)CC3)CO4)n2)CC1 [Example 69, (7R,16R)-19,23-dichloro-1-(4-fluorophenyl)-20,22-dimethyl-16-[(4-methylpiperazin-1-yl)methyl]-10-[(2-{(1r,4r)-4-[(2,5,8,11-tetraoxatridecan-13-yl)oxy]cyclohexyl}pyrimidin-4-yl)methoxy]-7,8,15,16-tetrahydro-18,21-etheno-13,9-(metheno)-6,14,17-trioxa-2-thia-3,5-diazacyclononadeca[1,2,3-cd]indene-7-carboxylic Acid]	0.053	0.012	0.000302	0.000615	–	–
COCCOCCOCCOCCOCCOCCOC1(c2nccc(COc3ccc4cc3C[C@H](C(=O)O)Oc3ncnc5sc(-c6ccc(F)cc6)c(c35)-c3c(C)c(Cl)c(c(Cl)c3C)O[C@H](CN3CCN(C)CC3)CO4)n2)CCCC1 [Example 74, (7R,16R)-19,23-dichloro-1-(4-fluorophenyl)-10-[(2-{1-[(2,5,8,11,14,17-hexaoxanonadecan-19-yl)oxy]cyclopentyl}pyrimidin-4-yl)methoxy]-20,22-dimethyl-16-[(4-methylpiperazin-1-yl)methyl]-7,8,15,16-tetrahydro-18,21-etheno-9,13-(metheno)-6,14,17-trioxa-2-thia-3,5-diazacyclononadeca[1,2,3-cd]indene-7-carboxylic Acid]	0.12	0.083	0.00153	0.00237	–	–
Cc1c(Cl)c2c(Cl)c(C)c1-c1c(-c3ccc(F)cc3)sc3ncnc(c13)O[C@@H](C(=O)O)Cc1cc(ccc1OCc1ccnc(N3CC(C(CO)CO)C3)n1)OC[C@@H](CN1CCN(C)CC1)O2 [Example 65, (7R,16R)-19,23-dichloro-10-({2-[3-(1,3-dihydroxypropan-2-yl)azetidin-1-yl]pyrimidin-4-yl}methoxy)-1-(4-fluorophenyl)-20,22-dimethyl-16-[(4-methylpiperazin-1-yl)methyl]-7,8,15,16-tetrahydro-18,21-etheno-9,13-(metheno)-6,14,17-trioxa-2-thia-3,5-diazacyclononadeca[1,2,3-cd]indene-7-carboxylic Acid]	0.65	0.195	0.0209	0.0596	–	–
Cc1c(Cl)c2c(Cl)c(C)c1-c1c(-c3ccc(F)cc3)sc3ncnc(c13)O[C@@H](C(=O)O)Cc1cc(ccc1OCc1ccnc(-c3ccc(CN4CCOCC4)cc3)n1)OC[C@@H](CN1CCN(C)CC1)O2 [Example 148, (7R,16R)-19,23-dichloro-1-(4-fluorophenyl)-20,22-dimethyl-16-[(4-methylpiperazin-1-yl)methyl]-10-[(2-{4-[(morpholin-4-yl)methyl]phenyl}pyrimidin-4-yl)methoxy]-7,8,15,16-tetrahydro-18,21-etheno-13,9-(metheno)-6,14,17-trioxa-2-thia-3,5-diazacyclononadeca[1,2,3-cd]indene-7-carboxylic Acid]	0.346	0.034	0.00018	0.000736	–	–
